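96-well plates; 48 h exposure; 5 concentrations. Endpoints by linear interpolation between flanking doses. Not reached: highest tested concentration assigned. GI50: concentration for 50% inhibition of growth.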 Calls of active or inactive are those of the source. Cut-off read from the data, not from the text of the source: active = GI50 up to about 1.1 µM and inactive = higher. Where a SMILES comes first, the peptide text is derived from it. The star is where a group is joined. Boc = CC(C)(C)OC(=O)*; OBn = c1ccc(CO*)cc1
Legend:
Experiment in all cases: DTP human tumour cell line panel, 48 h
[1] = tested on: SK-MEL-5
[2] = tested on: LOX IMVI
[3] = tested on: SK-MEL-2
[4] = tested on: RXF 393
[5] = tested on: OVCAR-4
[6] = tested on: SK-MEL-28
[7] = tested on: SK-OV-3
[8] = tested on: UO-31
[9] = tested on: HOP-62
[10] = tested on: CCRF-CEM
[11] = tested on: A498
[12] = tested on: M14
[13] = tested on: ACHN
[14] = tested on: SF-295
[15] = tested on: MDA-MB-435
[16] = tested on: MDA-MB-231
[17] = tested on: T47D
[18] = tested on: DU-145
[19] = tested on: BT-549

Measured: GI50

COc1ccc(Nc2nc3ccc(C(F)(F)F)cc3nc2-c2ccccc2)cc1OC
inactive: [1] 35.8 µM | [2] 16.1 µM | [3] 57.5 µM | [4] 23 µM | [5] > 100 µM | [6] > 100 µM | [7] > 100 µM | [8] 15.5 µM | [9] > 100 µM | [10] 25.1 µM | [11] 21.3 µM | [12] 55.5 µM | [13] 28.6 µM | [14] 17.4 µM

NS(=O)(=O)c1cc2c(cc1Cl)NCNS2(=O)=O [HYDROCHLOROTHIAZIDE]
inactive: [1] > 100 µM | [2] > 100 µM | [3] > 100 µM | [15] > 100 µM | [5] > 100 µM | [6] > 100 µM | [8] > 100 µM | [16] > 100 µM | [9] > 100 µM | [10] > 100 µM | [12] > 100 µM | [17] > 100 µM | [18] > 100 µM | [13] > 100 µM | [14] > 100 µM

O=C(O)CCNS(=O)(=O)c1ccc(NC(=O)c2ccccc2)cc1
inactive: [1] > 100 µM | [2] > 100 µM | [3] > 100 µM | [4] > 100 µM | [5] > 100 µM | [6] > 100 µM | [7] > 100 µM | [8] > 100 µM | [10] > 100 µM | [11] > 100 µM | [12] > 100 µM | [13] > 100 µM | [14] > 100 µM

COc1cc([N+](=O)[O-])c(S(=O)(=O)[O-])cc1-[n+]1nc(C(=O)Nc2ccccc2)nn1-c1ccc([N+](=O)[O-])c(S(=O)(=O)O)c1
inactive: [1] > 100 µM | [3] > 100 µM | [4] > 100 µM | [15] > 100 µM | [5] > 100 µM | [6] > 100 µM | [7] > 100 µM | [8] > 100 µM | [16] 52.2 µM | [9] > 100 µM | [10] > 100 µM | [12] > 100 µM | [17] > 100 µM | [18] > 100 µM | [13] > 100 µM | [14] > 100 µM

CC(N)Cc1ccc(Cl)cc1 (configuration not stated)
inactive: [1] 72.1 µM | [2] > 100 µM | [3] > 100 µM | [4] > 100 µM | [5] > 100 µM | [6] > 100 µM | [7] > 100 µM | [8] 59.4 µM | [9] > 100 µM | [10] 61.2 µM | [11] > 100 µM | [12] > 100 µM | [13] > 100 µM | [14] 47.9 µM

C=C(C)[C@H]1CC(=O)[C@@]2(C)C[C@H]3O[C@]3(C)CC/C=C(\C)CC[C@H]12
inactive: [1] 32.2 µM | [2] 57.5 µM | [3] 45.1 µM | [4] 33.8 µM | [15] 43.8 µM | [5] 42.1 µM | [6] 50.4 µM | [7] 63.2 µM | [8] 57.1 µM | [16] 84.1 µM | [9] 74.1 µM | [10] 32.7 µM | [11] 36.1 µM | [12] > 10 µM | [17] 38.4 µM | [18] 99.5 µM | [13] 42.9 µM | [14] > 100 µM

Cc1csc(NC23CC4CC(CC(C4)C2)C3)[n+]1C(P(=O)([O-])O)P(=O)(O)O (configuration not stated)
inactive: [1] > 100 µM | [2] > 100 µM | [4] > 100 µM | [15] > 100 µM | [6] > 100 µM | [7] > 100 µM | [8] > 100 µM | [16] > 100 µM | [9] > 100 µM | [10] > 100 µM | [11] > 100 µM | [19] > 100 µM | [12] > 100 µM | [18] > 100 µM | [13] > 100 µM | [14] > 100 µM

CC(=O)CN/C(C)=N/Nc1ccc([N+](=O)[O-])cc1[N+](=O)[O-]
inactive: [1] > 100 µM | [2] > 100 µM | [3] > 100 µM | [4] > 100 µM | [15] > 100 µM | [5] > 100 µM | [6] > 100 µM | [7] > 100 µM | [8] > 100 µM | [16] > 100 µM | [9] > 100 µM | [10] > 100 µM | [11] 78.3 µM | [12] > 100 µM | [17] > 100 µM | [18] > 100 µM | [13] 94.4 µM | [14] > 100 µM

COC(=O)C1(Cc2ccccc2)Cc2ccccc2C1
inactive: [1] 15.7 µM | [2] 20.5 µM | [3] 11.5 µM | [15] 19.2 µM | [5] 22.4 µM | [6] 26.9 µM | [7] 39.6 µM | [8] 7.73 µM | [16] 32.7 µM | [9] 32.1 µM | [10] 15.5 µM | [12] 17.1 µM | [17] 21.5 µM | [18] 30.8 µM | [13] 18.7 µM | [14] 36.5 µM

NC1(CCCCCCCCCCC(=O)O)CNCCNCCNCCNC1
inactive: [1] 38.9 µM | [3] 52.5 µM | [4] 27.7 µM | [5] 30.9 µM | [6] > 100 µM | [7] 63.8 µM | [8] > 100 µM | [9] 23.1 µM | [10] 22.6 µM | [11] 13.7 µM | [12] 75.3 µM | [13] 55.3 µM | [14] > 100 µM

CC(C)(C)OC(=O)NC(Cc1ccccc1)C(=O)NC(Cc1ccccc1)C(=O)NCC(=O)OCc1ccccc1 (stereo not drawn) (Boc-Phe-Phe-Gly-OBn; configuration not given here)
inactive: [2] 7.93 µM | [3] 33.6 µM | [15] 8.36 µM | [5] 24.7 µM | [6] 23.3 µM | [7] 22.8 µM | [8] 41 µM | [16] > 10 µM | [9] 31.1 µM | [10] 16.4 µM | [11] > 100 µM | [12] 20.8 µM | [17] 77.6 µM | [18] 17.9 µM | [13] 47.3 µM | [14] > 10 µM

CN(C)CC1COC2Cc3ccccc3C1O2 (configuration not stated)
inactive: [1] > 100 µM | [2] > 100 µM | [3] > 100 µM | [4] > 100 µM | [15] > 100 µM | [5] > 100 µM | [6] > 100 µM | [7] > 100 µM | [8] > 100 µM | [16] > 100 µM | [9] > 100 µM | [10] > 100 µM | [11] > 100 µM | [12] > 100 µM | [17] > 100 µM | [18] > 100 µM | [13] > 100 µM | [14] > 100 µM

Source: ChEMBL document CHEMBL1201862, “PubChem BioAssay data set” (2004)
